From patent publication EP2173323B1, “STIMULATING GEL” (LRC Products Limited, priority 2007, dated 2009)

Experiments:
[1] = Cooling strength of coolants relative to menthol; conditions: menthol = 100
[2] = Penetration of coolants across body surfaces
From the text: By "penetration enhancer" we mean any compound which aids penetration or absorption of coolants (or other active ingredients) into and through body surfaces, for example, compounds which aid penetration of coolants into and through the skin and mucosal membranes. Preferably, penetration enhancers as used herein aid penetration and/or absorption of coolants which are cyclic carboxamides, such as N-cthyl-p-menthane-3-carboxamide, and/or aid penetration and/or absorption of (-)-isopulegol across body surfaces. Such penetration enhancement may potentiate the action of coolants, or other active ingredients. Any suitable penetration enhancer may be used. Preferred penetration enhancers include ethoxy diglycol, limonene, isopropyl palmitate, sodium lauryl sulphate and L-arginine. Optionally, the penetration enhancer may also act as a vasodilator.
Optionally, the compositions further comprise a penetration enhancer. The penetration enhancer can be any compound which aids penetration or absorption of the cyclic carboxamide and/or of isopulegol into and through body surfaces, for example, compounds which aid penetration into and through the skin and mucosal membranes. Any suitable penetration enhancer may be used. Preferred penetration enhancers include ethoxy diglycol, limonene; isopropyl palmitate; and sodium lauryl sulphate. […]

[3] = Crystallisation / clouding at low temperatures; assay type: physicochemical
[4] = Volatility compared with menthol; assay type: physicochemical

Row | Compound | Cooling strength relative to menthol [1] | also measured
1 | C=C(C)C1CCC(C)CC1O (stereo not drawn) [Isopulegol, 2-isopropenyl-5-methyl-cyclohexanol] | 25 | 
2 | N=C(N)NCCC[C@H](N)C(=O)O [L-arginine] |  | penetration enhancement of coolants (cyclic carboxamides and isopulegol) [2]: aids penetration of coolants
3 | CC1CCC(C(C)C)C(O)C1 (stereo not drawn) [Menthol] | 100 | 
4 | CC1CCC(C(C)C)C2(C1)OCC(CO)O2 (stereo not drawn) [Menthone glycerine acetal] | 41 | 
5 | CC1CCC(C(C)C)C(OC(=O)C(C)O)C1 (stereo not drawn) [Menthyl lactate] | 43 | 
6 | CCNC(=O)C1CC(C)CCC1C(C)C (stereo not drawn) [WS-3, N-ethyl-p-menthane-3-carboxamide] | 150 | crystallisation at low temperatures [3]: does not crystallise at low temperatures; volatility [4]: lower volatility than menthol
7 | CNC(=O)C(C)(C(C)C)C(C)C [WS-23] | 75 | 
